Data on six compounds can be found in patent publication US10981911B2, “Imidazopyrrolopyridine as inhibitors of the JAK family of kinases” (Janssen Pharmaceutica NV, priority 2016, dated 2021).

Sequence of JAK3-JH1JH2 (P52333 512-1124): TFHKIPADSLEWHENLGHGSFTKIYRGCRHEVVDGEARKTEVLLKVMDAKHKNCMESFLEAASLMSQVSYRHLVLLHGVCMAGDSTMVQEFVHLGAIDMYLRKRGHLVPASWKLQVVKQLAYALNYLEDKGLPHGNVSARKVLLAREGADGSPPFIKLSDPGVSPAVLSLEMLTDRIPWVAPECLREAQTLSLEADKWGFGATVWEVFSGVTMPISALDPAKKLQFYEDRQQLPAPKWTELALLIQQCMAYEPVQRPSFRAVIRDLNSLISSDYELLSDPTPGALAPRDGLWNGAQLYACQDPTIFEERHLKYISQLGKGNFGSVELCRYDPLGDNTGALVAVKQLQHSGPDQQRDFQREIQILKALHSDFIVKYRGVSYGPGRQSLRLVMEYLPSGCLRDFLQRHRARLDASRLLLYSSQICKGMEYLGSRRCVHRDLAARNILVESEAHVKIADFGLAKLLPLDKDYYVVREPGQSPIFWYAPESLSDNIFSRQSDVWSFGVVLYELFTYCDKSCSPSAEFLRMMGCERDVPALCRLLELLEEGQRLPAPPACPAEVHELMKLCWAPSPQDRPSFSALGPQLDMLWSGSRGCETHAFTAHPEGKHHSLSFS

In the first data set the target is JAK3-JH1JH2 (Homo sapiens (Human), UniProt P52333). The experiment in a line: Enzymatic inhibition assay (RapidFire HTMS), JAK3. The settings on record: 150 μM ATP, 40 μM substrate. It is filed as biochemical. In outline:
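JAK3 JH1JH2 reaction incubated 45 min at 25 °C, then quenched with 0.5% TFA containing 0.15 μM internal standard peptide. Phosphopeptide product measured by RapidFire C4 SPE–ESI MS (positive mode); inhibition from product decrease versus uninhibited enzyme, 11-point 1:3 or 1:4 dilutions in duplicate.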
In general, IC50 refers to the concentration that gives 50% inhibition. A high value points to lower potency. The compound `CC(C)(O)CNC(=O)Cc1nc2cnc3[nH]ccc3c2n1[C@H]1CC[C@H](CC#N)CC1` [Ex. 1, 2-(1-((1r,4r)-4-(Cyanomethyl)cyclohexyl)-1,6-dihydroimidazo[4,5-d]pyrrolo[2,3-b]pyridin-2-yl)-N-(2-hydroxy-2-methylpropyl)acetamide] came in with an IC50 of 87.8 nM. `CC(C)(C#N)CNC(=O)Cc1nc2cnc3[nH]ccc3c2n1[C@H]1CC[C@H](CC#N)CC1` [Ex. 22, N-(2-Cyano-2-methylpropyl)-2-(1-((1r,4r)-4-(cyanomethyl)cyclohexyl)-1,6-dihydroimidazo[4,5-d]pyrrolo[2,3-b]pyridin-2-yl)acetamide] displayed an IC50 of 93.6 nM. For the compound `N#CC[C@H]1CC[C@H](n2c(CC(=O)NCC3(O)CCC3)nc3cnc4[nH]ccc4c32)CC1` [Ex. 34, 2-(1-((1r,4r)-4-(Cyanomethyl)cyclohexyl)-1,6-dihydroimidazo[4,5-d]pyrrolo[2,3-b]pyridin-2-yl)-N-((1-hydroxycyclobutyl)methyl)acetamide], 42.5 nM corresponded to half-maximal inhibition (IC50).

For the compound `N#CCC12CCC(NC(=O)Cc3nc4cnc5[nH]ccc5c4n3[C@H]3CC[C@H](CC#N)CC3)(CC1)C2` [Ex. 55, N-(4-(Cyanomethyl)bicyclo[2.2.1]heptan-1-yl)-2-(1-((1r,4r)-4-(cyanomethyl)cyclohexyl)-1,6-dihydroimidazo[4,5-d]pyrrolo[2,3-b]pyridin-2-yl)acetamide], inhibition was half-maximal at 59.6 nM (IC50).

`N#CC[C@H]1CC[C@H](n2c(CC(=O)NCC3(O)CC3)nc3cnc4[nH]ccc4c32)CC1` [Ex. 85, 2-(1-((1r,4r)-4-(Cyanomethyl)cyclohexyl)-1,6-dihydroimidazo[4,5-d]pyrrolo[2,3-b]pyridin-2-yl)-N-((1-hydroxycyclopropyl)methyl)acetamide] registered an IC50 of 68.2 nM.

The test system of the next data set is MDCK-MDR1 cell line. The experiment in a line: MDCK-MDR1 permeability assay. The data set is classed as in vitro ADME. To be noted: @ 5 μM, apical to basolateral, with P-gp inhibitor elacridar (2 μM). In a few lines:
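MDCK-MDR1 monolayers (passage 6-30, day 4) dosed at 5 μM in HBSS pH 7.4, A-B with or without 2 μM elacridar, and B-A, 60 min at 37° C. LC/MS/MS quantitation; Papp=(dQ/dt)/(C0×S), efflux ratio = Papp(B-A)/Papp(A-B).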
On to `N#CC[C@H]1CC[C@H](n2c(CC(=O)NC3CCOCC3)nc3cnc4[nH]ccc4c32)CC1` [Ex. 5, 2-(1-((1r,4r)-4-(Cyanomethyl)cyclohexyl)-1,6-dihydroimidazo[4,5-d]pyrrolo[2,3-b]pyridin-2-yl)-N-(tetrahydro-2H-pyran-4-yl)acetamide], for which the “MDCK-MDR1 P^eapp(A-B)” value is listed as 0.5 10^−6 cm/sec.
